Experimental findings from publication PMC12627862, “Therapeutic targeting of endothelial calcium signaling accelerates the resolution of lung injury” (Signal Transduction and Targeted Therapy, 2025) are described below.

Data set [1] is described as follows: Aggregation / solubility at 1 mM. The class given is physicochemical. The conditions noted are these: summary calls it solubility at 1mM. As to the method: (§1) The solubilities of the synthesized compounds were determined experimentally (Supplementary Table 2). Most compounds were highly soluble at a 1 mM concentration; however, some compounds tended to form aggregates. These compounds were excluded from further studies. In addition, we experimentally determined the lipophilicity of each compound, logP(oct/wat)=log(soluteoct/solutewat ), which is the partition coefficient of a compound between aqueous (water) and lipophilic (octanol) phases (Supplementary Table 2).

The test system of data set [2] is human primary microvascular lung endothelial cells (HLMVECs). Description: Peptide uptake in endothelial cells. In kind it is cell-based. As for the experimental part: We next analyzed the cell-penetrating properties of the selected compounds, hereafter referred to as vascular therapeutics (VT). The rate of uptake of 5’6-FAM (fluorescein)-labeled compounds by human primary microvascular lung endothelial cells (HLMVECs) was determined via confocal fluorescence live-cell imaging. FAM-labeled Myr-EBIN[13] and fluorescein alone were used as positive and negative controls, respectively. The t½ uptake and maximal uptake were determined from changes in the integrated fluorescence intensity over a 30 min period (Fig. 2a and Supplementary Fig. 1a). […] Like Myr-EBIN, compounds VT-107, -108 and -109 presented the highest uptake rates of 92.5 ± 5.0%, 82.5 ± 2.8% and 94.7 ± 4.9%, respectively, whereas the linear compound VT-101 was taken up less efficiently, with an average uptake of 58.4 ± 2.7% (Fig. 2a). […] The t½ uptake, however, varied between the tested compounds (Fig. 2b). The stapled compounds presented the shortest t½ uptake, whereas the linear compounds presented the longest t½ (Fig. 2b).
Peptide uptake in endothelial cells. The rate of peptide uptake by primary human microvascular endothelial cells was measured using 5’6FAM (fluorescein)-labeled peptides and confocal fluorescence live-cell imaging, with fluorescein alone used as a negative control. Changes in intracellular fluorescence for each peptide were monitored over time, and saponin, a detergent, was added at the end of the experiment to induce full uptake of the tested peptides by endothelial cells. The fluorescence intensity inside the cells was tracked over time, and the half-time uptake (t1/2) and maximum uptake were calculated.

Data set [3] can be described thus: Lipophilicity of peptides, logP(oct/wat). In kind it is physicochemical. As to the method: as §1
Lipophilicity of peptides. Two separate solutions were obtained: an aqueous phosphate buffer with saturated n-octanol, and an n-octanol solution with saturated phosphate buffer. Peptides were then dissolved and diluted in the phosphate buffer. Different partitions were then made with different n-octanol to water ratio before shaking for an hour at room temperature. The aqueous phase and n-octanol were allowed to equilibrate, and each phase was extracted and analyzed for peptide concentrations. The ratio of peptide concentration in n-octanol to that in water is expressed as log(P).

Data set [4] has as its target EB3 interactions with IP3R3-GFP (Homo sapiens, UniProt Q9UPY8). Description: Competitive binding: inhibition of EB3 interaction with IP3R3-GFP in vitro. In kind it is biochemical. The conditions noted are these: for inhibition at 0.25 µM: 250 nM. An excerpt: We tested the efficacy of twenty-three compounds in inhibiting EB3 interactions with IP3R3-GFP via an in vitro approach developed by us[12],[13]. […] Guided by NMR studies, we predicted the binding pose of 109 to EB3 via AutoDock Vina[13],[24],[25].

Read-outs that look alike come from different tables or passages of the source. Starred links: 1 amine or outer side, 2 acyl side, 3 side chain; linkers in the order of their positions; H or OH if unused. Positions of bridges follow the written chain, without caps; N, C: chain ends. Non-standard residues stand in square brackets, D forms with d. Residues, ends and D or L forms follow the SMILES beside them. No end group written: not given here. ξ: configuration not given here. Leu(4,5-dehydro) = C=C(C)C[C@H](N)C(=O)O; Oic = O=C(O)[C@@H]1C[C@@H]2CCCC[C@@H]2N1; X4 = C=C(C)C[C@@H](N[*:1])C(=O)[*:2]; dVal(3-OH) = CC(C)(O)[C@@H](N)C(=O)O; cisHyp = O=C(O)[C@@H]1C[C@H](O)CN1; tBuAla = CC(C)(C)C[C@H](N)C(=O)O; R5 = C=CCCC[C@@](C)(N)C(=O)O; X1 = O=C(CC(O)CN[*:1])[*:2]; 3Amb = NCc1cccc(C(=O)O)c1; 4Amb = NCc1ccc(C(=O)O)cc1; ξP = O=C(O)C1CCCN1

Chain of EB3 interactions with IP3R3-GFP (Q9UPY8 whole entry): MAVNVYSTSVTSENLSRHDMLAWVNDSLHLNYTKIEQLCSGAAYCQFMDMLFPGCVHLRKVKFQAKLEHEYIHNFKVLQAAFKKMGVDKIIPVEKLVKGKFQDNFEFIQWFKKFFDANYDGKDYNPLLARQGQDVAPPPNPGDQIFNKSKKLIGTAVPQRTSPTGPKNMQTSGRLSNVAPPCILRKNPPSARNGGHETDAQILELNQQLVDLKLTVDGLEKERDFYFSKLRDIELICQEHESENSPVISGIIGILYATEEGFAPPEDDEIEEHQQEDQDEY

One may read the logD as lipophilicity at a set pH, counting ionised and neutral species. By inhibition is commonly meant the percentage by which the read-out fell short of the control. A higher inhibition goes with a response far below the control. `C=C(C)C[C@H](NC(=O)c1ccc(CNC(=O)CC(O)CN)cc1)C(=O)N1[C@H](C(=O)NCC(O)CC(=O)N[C@@H](CC(C)(C)C)C(=O)O)C[C@@H]2CCCC[C@@H]21` (stereo partly drawn) [compound 104, (2S)-2-(4-((2S,3aS,7aS)-1-((2S)-2-(4-((4-amino-3-hydroxybutanamido)methyl)benzamido)-4-methylpent-4-enoyl)octahydro-1H-indole-2-carboxamido)-3-hydroxybutanamido)-4,4-dimethylpentanoic acid.]: in data set [1], the “Aggregation at 1mM” value is “weak signal”. In addition, in data set [2], the “half-time uptake t1/2” value amounted to 8.56 ± 0.48 min. The same compound gave a logD in data set [3] of -0.3. In addition, in data set [4], 0.25 µM produced 40% inhibition.

For the compound “FTEIPTI [compound 000, (S)-4-((2S,3R)-2-((S)-2-amino-3-phenylpropanamido)-3-hydroxybutanamido)-5-(((2S,3S)-1-((S)-2-(((2S,3R)-1-(((1S,2S)-1-carboxy-2-methylbutyl)amino)-3-hydroxy-1-oxobutan-2-yl)carbamoyl)pyrrolidin-1-yl)-3-methyl-1-oxopentan-2-yl)amino)-5-oxopentanoic acid, reference compound]”, the “half-time uptake t1/2” value in data set [2] was determined as 2.50 ± 0.06 min. Further, in data set [3], the “Log P (Octanol/Water)” value was 0.75. The “Competitive Binding at 250nM (% Inhibition)” value in data set [4] (0.25 µM) is recorded as “no inhibition”; in data set [4] (listed as EBIN, 0.25 µM), “did not”.

Take `CC[C@H](C)[C@H](NC(=O)[C@@H](NC(=O)[C@@H]1CCCN1C(=O)[C@@H](NC(=O)[C@H](CCC(=O)O)NC(=O)[C@@H](NC(=O)[C@H](N)Cc1ccccc1)[C@@H](C)O)[C@@H](C)CC)[C@@H](C)O)C(=O)O` [compound 004, (S)-4-((2S,3R)-2-((R)-2-amino-3-phenylpropanamido)-3-hydroxybutanamido)-5-(((2S,3S)-1-((S)-2-(((2S,3R)-1-(((1S,2S)-1-carboxy-2-methylbutyl)amino)-3-hydroxy-1-oxobutan-2-yl)carbamoyl)pyrrolidin-1-yl)-3-methyl-1-oxopentan-2-yl)amino)-5-oxopentanoic acid] (H-[dF]TEIPTI-OH): the “Aggregation at 1mM” value in data set [1] was 0.35. Moreover, the logD in data set [3] was -0.81. The compound further came in with an inhibition at 0.25 µM in data set [4] of 39%.

Turning to `C=C(C)C[C@H](NC(=O)CC(O)CNC(=O)[C@@H]1C[C@@H]2CCCC[C@@H]2N1C(=O)[C@H](CC(=C)C)NC(=O)c1ccc(CNC(=O)[C@H](NC(=O)[C@H](N)Cc2ccccc2)C(C)(C)O)cc1)C(=O)O` (stereo partly drawn) [compound 105, (2S)-2-(4-((2S,3aS,7aS)-1-((S)-2-(4-(((R)-2-((R)-2-amino-3-phenylpropanamido)-3-hydroxy-3-methylbutanamido)methyl)benzamido)-4-methylpent-4-enoyl)octahydro-1H-indole-2-carboxamido)-3-hydroxybutanamido)-4-methylpent-4-enoic acid.] (H-[dF][dVal(3-OH)][4Amb][Leu(4,5-dehydro)][Oic][X1][Leu(4,5-dehydro)]-OH), the “Aggregation at 1mM” value in data set [1] is “weak signal”. Also, the pH-dependent lipophilicity (logD) in data set [3] was -0.37. The inhibition at 0.25 µM in data set [4] is 70%.

For `C=C(C)C[C@H]1NC(=O)[C@](C)(NC(=O)[C@@H](CCC(=O)O)NC(=O)[C@H](N)[C@H](C)O)CCC/C=C\CCC[C@](C)(C(=O)N[C@H](C(=O)O)[C@@H](C)CC)NC(=O)[C@H]([C@@H](C)O)NC(=O)C2CCCN2C1=O` (stereo partly drawn) [compound 052, (4R)-4-((2R,3S)-2-amino-3-hydroxybutanamido)-5-(((3S,6R,15R,18R,Z)-6-(((1S,2S)-1-carboxy-2-methylbutyl)carbamoyl)-3-((R)-1-hydroxyethyl)-6,15-dimethyl-18-(2-methylallyl)-1,4,16,19-tetraoxo-2,3,4,5,6,7,8,9,12,13,14,15,16,17,18,19,21,22,23,23a-icosahydro-1H-pyrrolo[1,2-d][1,4,7,10]tetraazacyclohenicosin-15-yl)amino)-5-oxopentanoic acid] (H-[dT][dE][R5][X4][ξP]T[R5]I-OH; staple (Z) 3-7), the “Aggregation at 1mM” value in data set [1] turned out to be 0.17. In data set [3], this compound returned a logD of -0.07. In data set [4], this compound had an inhibition at 0.25 µM of 73%.

With `C=C(C)C[C@H](NC(=O)[C@@H](NC(=O)[C@@H]1CCCN1C(=O)[C@H](CC(C)(C)C)NC(=O)[C@H](CCC(=O)O)NC(=O)[C@H](NC(=O)[C@H](N)Cc1ccccc1)C(C)(C)O)[C@@H](C)O)C(N)=O` [compound 044, (S)-4-((R)-2-((R)-2-amino-3-phenylpropanamido)-3-hydroxy-3-methylbutanamido)-5-(((S)-1-((S)-2-(((2S,3R)-1-(((S)-1-amino-4-methyl-1-oxopent-4-en-2-yl)amino)-3-hydroxy-1-oxobutan-2-yl)carbamoyl)pyrrolidin-1-yl)-4,4-dimethyl-1-oxopentan-2-yl)amino)-5-oxopentanoic acid] (H-[dF][dVal(3-OH)]E[tBuAla]PT[Leu(4,5-dehydro)]-NH2), the “Aggregation at 1mM” value in data set [1] is “weak signal”. In data set [3], the logD was -0.59. In addition, the inhibition at 0.25 µM in data set [4] was 51%.

Turning to `CC[C@H](C)[C@H](NC(=O)[C@@H](NC(=O)[C@@H]1CCCN1C(=O)[C@@H](NC(=O)c1ccc(CNC(=O)[C@H](NC(=O)[C@@H](N)Cc2ccccc2)C(C)(C)O)cc1)[C@@H](C)CC)[C@@H](C)O)C(=O)O` [compound 021, (4-(((R)-2-((S)-2-amino-3-phenylpropanamido)-3-hydroxy-3-methylbutanamido)methyl)benzoyl)-L-isoleucyl-L-prolyl-L-threonyl-L-isoleucine] (H-F[dVal(3-OH)][4Amb]IPTI-OH), in data set [1], the “Aggregation at 1mM” value is reported as “weak signal”. The compound further had a log distribution coefficient (logD) in data set [3] of -0.24. Besides, in data set [4], the inhibition at 0.25 µM worked out at 35%.

In the case of `CC(C)(C)C[C@H](NC(=O)CC(O)CNC(=O)[C@@H]1C[C@@H]2CCCC[C@@H]2N1C(=O)[C@H](CC(C)(C)C)NC(=O)c1ccc(CNC(=O)[C@H](N)C(C)(C)O)cc1)C(=O)O` (stereo partly drawn) [compound 103, (2S)-2-(4-((2S,3aS,7aS)-1-((S)-2-(4-(((R)-2-amino-3-hydroxy-3-methylbutanamido)methyl)benzamido)-4,4-dimethylpentanoyl)octahydro-1H-indole-2-carboxamido)-3-hydroxybutanamido)-4,4-dimethylpentanoic acid] (H-[dVal(3-OH)][4Amb][tBuAla][Oic][X1][tBuAla]-OH), in data set [1], the “Aggregation at 1mM” value was “weak signal”. For the same compound, in data set [3], the logD turned out to be 0.44. This compound also registered an inhibition at 0.25 µM in data set [4] of 12%.

In the case of `CC[C@H](C)[C@H](NC(=O)[C@H](NC(=O)[C@@H]1C[C@H](O)CN1C(=O)[C@H](CC(C)(C)C)NC(=O)c1cccc(CNC(=O)[C@H](NC(=O)[C@@H](N)Cc2ccccc2)C(C)(C)O)c1)C(C)(C)O)C(=O)O` [compound 042, ((R)-2-((2S,4S)-1-((S)-2-(3-(((R)-2-((S)-2-amino-3-phenylpropanamido)-3-hydroxy-3-methylbutanamido)methyl)benzamido)-4,4-dimethylpentanoyl)-4-hydroxypyrrolidine-2-carboxamido)-3-hydroxy-3-methylbutanoyl)-L-isoleucine] (H-F[dVal(3-OH)][3Amb][tBuAla][cisHyp][dVal(3-OH)]I-OH), in data set [1], the “Aggregation at 1mM” value is listed as “weak signal”. The compound further had a pH-dependent lipophilicity (logD) in data set [3] of 0.03. Moreover, testing at 0.25 µM in data set [4] gave an inhibition of 36%.

Regarding `C=C(C)C[C@H](NC(=O)c1ccc(CNC(=O)CC(O)CNC(=O)[C@H](N)Cc2ccccc2)cc1)C(=O)N1[C@H](C(=O)NCC(O)CC(=O)N[C@@H](CC(C)(C)C)C(=O)O)C[C@@H]2CCCC[C@@H]21` (stereo partly drawn) [compound 102, (2S)-2-(4-((2S,3aS,7aS)-1-((2S)-2-(4-((4-((R)-2-amino-3-phenylpropanamido)-3-hydroxybutanamido)methyl)benzamido)-4-methylpent-4-enoyl)octahydro-1H-indole-2-carboxamido)-3-hydroxybutanamido)-4,4-dimethylpentanoic acid.], the “Aggregation at 1mM” value in data set [1] is recorded as “weak signal”. The compound also yielded a log distribution coefficient (logD) in data set [3] of 0.2. Further, the “Competitive Binding at 250nM (% Inhibition)” value in data set [4] is given as “no inhibition”.
